Results reported in patent US20190315823A1, “SMALL CATIONIC ANTI-BIOFILM AND IDR PEPTIDES” (priority 2013, published 2019).
Ends that are not written are not given here.

Assays:
[1] = test system: methicillin resistant Staphylococcus aureus (MRSA) biofilm; details: approximate peptide concentration […] (around 3 μg/ml); compared to untreated samples
How it was run: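 Static biofilm assay: 1/100 dilutions of overnight cultures grown in BM2 medium (pH 7, glucose, Casamino Acids) or Luria Broth with peptide added at time zero. After 22–46 h, adherent biofilm was stained with crystal violet and read at 595 nm. Some peptides were also tested on K. pneumoniae under flow in a Bioflux system.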

[2] = test system: human peripheral blood mononuclear cells (MCP-1); assay: SPOT-synthesized derivative screen: production of chemokine MCP-1; type: cell-based; details: Table 12, No LPS, human PBMC, peptide at ~18-24 μM; for MCP1: background subtracted 139 (HH2 derivatives), 170 (1018 derivatives), 242 (1002 and hybrid peptides) pg/ml
How it was run: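 PBMC from heparinized healthy-donor venous blood, Ficoll-separated, cultured at 0.75 to 1×10^6 cells/ml, 37 °C, 5% CO2, under the treatment regimens. MCP-1 in cell-free supernatants measured by capture ELISA.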

[3] = test system: LPS-stimulated human peripheral blood mononuclear cells (IL1-β); type: cell-based; details: Table 12, cells stimulated with 10 ng/ml LPS; for IL1β Production: LPS alone 1313 (HH2 derivatives), 1927 (1018 derivatives), 2455 (1002 and hybrid peptides) pg/ml

1002-R10: single substituted 1002 peptide (VQRWLIVWRRRK-NH2) [Peptide 1002-R10]
% Biofilm inhibition [1]: 15%
Fold increase in MCP1 cf. untreated cells [2]: 2.5
MCP1 [2]: 375.3 pg/mL
Fold change in IL1β relative to no peptide LPS stimulated cells [3]: 0.05
IL1β Production [3]: 127 pg/mL

1002-R12: single substituted 1002 peptide (VQRWLIVWRIRR-NH2) [Peptide 1002-R12]
% Biofilm inhibition [1]: 62%
Fold increase in MCP1 cf. untreated cells [2]: 2.1
MCP1 [2]: 270.8 pg/mL
Fold change in IL1β relative to no peptide LPS stimulated cells [3]: 0.05
IL1β Production [3]: 127 pg/mL

1002-V2: single substituted 1002 peptide (VVRWLIVWRIRK-NH2) [Peptide 1002-V2]
% Biofilm inhibition [1]: 72%
Fold increase in MCP1 cf. untreated cells [2]: 22.5
MCP1 [2]: 5209.2 pg/mL
Fold change in IL1β relative to no peptide LPS stimulated cells [3]: 0.05
IL1β Production [3]: 127 pg/mL

1002-V3: single substituted 1002 peptide (VQVWLIVWRIRK-NH2) [Peptide 1002-V3]
% Biofilm inhibition [1]: 49%
Fold increase in MCP1 cf. untreated cells [2]: 2.5
MCP1 [2]: 359.1 pg/mL
Fold change in IL1β relative to no peptide LPS stimulated cells [3]: 0.05
IL1β Production [3]: 127 pg/mL

1002-V4: single substituted 1002 peptide (VQRVLIVWRIRK-NH2) [Peptide 1002-V4]
% Biofilm inhibition [1]: 69%
Fold increase in MCP1 cf. untreated cells [2]: 10.5
MCP1 [2]: 2300.2 pg/mL
Fold change in IL1β relative to no peptide LPS stimulated cells [3]: 0.08
IL1β Production [3]: 190 pg/mL

1002-V5: single substituted 1002 peptide (VQRWVIVWRIRK-NH2) [Peptide 1002-V5]
% Biofilm inhibition [1]: 75%
Fold increase in MCP1 cf. untreated cells [2]: 38.2
MCP1 [2]: 9022.6 pg/mL
Fold change in IL1β relative to no peptide LPS stimulated cells [3]: 0.18
IL1β Production [3]: 440 pg/mL

1002-V6: single substituted 1002 peptide (VQRWLVVWRIRK-NH2) [Peptide 1002-V6]
% Biofilm inhibition [1]: 71%
Fold increase in MCP1 cf. untreated cells [2]: 1.5
MCP1 [2]: 113.5 pg/mL
Fold change in IL1β relative to no peptide LPS stimulated cells [3]: 0.05
IL1β Production [3]: 127 pg/mL

1002-V8: single substituted 1002 peptide (VQRWLIVVRIRK-NH2) [Peptide 1002-V8]
% Biofilm inhibition [1]: 56%
Fold increase in MCP1 cf. untreated cells [2]: 7.1
MCP1 [2]: 1468.2 pg/mL
Fold change in IL1β relative to no peptide LPS stimulated cells [3]: 0.08
IL1β Production [3]: 198 pg/mL

1002-V9: single substituted 1002 peptide (VQRWLIVWVIRK-NH2) [Peptide 1002-V9]
% Biofilm inhibition [1]: 47%
Fold increase in MCP1 cf. untreated cells [2]: 1.5
MCP1 [2]: 131.8 pg/mL
Fold change in IL1β relative to no peptide LPS stimulated cells [3]: 0.05
IL1β Production [3]: 134 pg/mL

1002-V10: single substituted 1002 peptide (VQRWLIVWRVRK-NH2) [Peptide 1002-V10]
% Biofilm inhibition [1]: 63%
Fold increase in MCP1 cf. untreated cells [2]: 2.3
MCP1 [2]: 308.0 pg/mL
Fold change in IL1β relative to no peptide LPS stimulated cells [3]: 0.05
IL1β Production [3]: 127 pg/mL

1002-V11: single substituted 1002 peptide (VQRWLIVWRIVK-NH2) [Peptide 1002-V11]
% Biofilm inhibition [1]: 68%
Fold increase in MCP1 cf. untreated cells [2]: 3.2
MCP1 [2]: 541.2 pg/mL
Fold change in IL1β relative to no peptide LPS stimulated cells [3]: 0.05
IL1β Production [3]: 127 pg/mL

1002-V12: single substituted 1002 peptide (VQRWLIVWRIRV-NH2) [Peptide 1002-V12]
% Biofilm inhibition [1]: 67%
Fold increase in MCP1 cf. untreated cells [2]: 1.3
MCP1 [2]: 76.4 pg/mL
Fold change in IL1β relative to no peptide LPS stimulated cells [3]: 0.05
IL1β Production [3]: 127 pg/mL

1002-W1: single substituted 1002 peptide (WQRWLIVWRIRK-NH2) [Peptide 1002-W1]
% Biofilm inhibition [1]: 76%
Fold increase in MCP1 cf. untreated cells [2]: 3.6
MCP1 [2]: 622.0 pg/mL
Fold change in IL1β relative to no peptide LPS stimulated cells [3]: 0.05
IL1β Production [3]: 127 pg/mL

1002-W2: single substituted 1002 peptide (VWRWLIVWRIRK-NH2) [Peptide 1002-W2]
% Biofilm inhibition [1]: 61%
Fold increase in MCP1 cf. untreated cells [2]: 11.8
MCP1 [2]: 2611.5 pg/mL
Fold change in IL1β relative to no peptide LPS stimulated cells [3]: 0.05
IL1β Production [3]: 127 pg/mL

1002-W3: single substituted 1002 peptide (VQWWLIVWRIRK-NH2) [Peptide 1002-W3]
% Biofilm inhibition [1]: 68%
Fold increase in MCP1 cf. untreated cells [2]: 1.4
MCP1 [2]: 90.4 pg/mL
Fold change in IL1β relative to no peptide LPS stimulated cells [3]: 0.05
IL1β Production [3]: 127 pg/mL

1002-W5: single substituted 1002 peptide (VQRWWIVWRIRK-NH2) [Peptide 1002-W5]
% Biofilm inhibition [1]: 76%
Fold increase in MCP1 cf. untreated cells [2]: 0.9
MCP1 [2]: -36.2 pg/mL
Fold change in IL1β relative to no peptide LPS stimulated cells [3]: 0.05
IL1β Production [3]: 127 pg/mL

1002-W6: single substituted 1002 peptide (VQRWLWVWRIRK-NH2) [Peptide 1002-W6]
% Biofilm inhibition [1]: 53%
Fold increase in MCP1 cf. untreated cells [2]: 0.9
MCP1 [2]: -36.2 pg/mL
Fold change in IL1β relative to no peptide LPS stimulated cells [3]: 0.05
IL1β Production [3]: 127 pg/mL

1002-W7: single substituted 1002 peptide (VQRWLIWWRIRK-NH2) [Peptide 1002-W7]
% Biofilm inhibition [1]: 62%
Fold increase in MCP1 cf. untreated cells [2]: 1.5
MCP1 [2]: 128.3 pg/mL
Fold change in IL1β relative to no peptide LPS stimulated cells [3]: 0.05
IL1β Production [3]: 127 pg/mL

1002-W9: single substituted 1002 peptide (VQRWLIVWWIRK-NH2) [Peptide 1002-W9]
% Biofilm inhibition [1]: 73%
Fold increase in MCP1 cf. untreated cells [2]: 1.0
MCP1 [2]: 12.0 pg/mL
Fold change in IL1β relative to no peptide LPS stimulated cells [3]: 0.05
IL1β Production [3]: 127 pg/mL

1002-W10: single substituted 1002 peptide (VQRWLIVWRWRK-NH2) [Peptide 1002-W10]
% Biofilm inhibition [1]: 71%
Fold increase in MCP1 cf. untreated cells [2]: 8.8
MCP1 [2]: 1889.1 pg/mL
Fold change in IL1β relative to no peptide LPS stimulated cells [3]: 0.05
IL1β Production [3]: 127 pg/mL

1002-W11: single substituted 1002 peptide (VQRWLIVWRIWK-NH2) [Peptide 1002-W11]
% Biofilm inhibition [1]: 37%
Fold increase in MCP1 cf. untreated cells [2]: 0.9
MCP1 [2]: -36.2 pg/mL
Fold change in IL1β relative to no peptide LPS stimulated cells [3]: 0.05
IL1β Production [3]: 127 pg/mL

1002-W12: single substituted 1002 peptide (VQRWLIVWRIRW-NH2) [Peptide 1002-W12]
% Biofilm inhibition [1]: 71%
Fold increase in MCP1 cf. untreated cells [2]: 2.7
MCP1 [2]: 412.5 pg/mL
Fold change in IL1β relative to no peptide LPS stimulated cells [3]: 0.05
IL1β Production [3]: 127 pg/mL

1018-A1: single substituted 1018 peptide (ARLIVAVRIWRR-NH2) [Peptide 1018-A1]
% Biofilm inhibition [1]: 51%
Fold increase in MCP1 cf. untreated cells [2]: 1.9
MCP1 [2]: 161 pg/mL
Fold change in IL1β relative to no peptide LPS stimulated cells [3]: 0.13
IL1β Production [3]: 170 pg/mL

1018-A2: single substituted 1018 peptide (VALIVAVRIWRR-NH2) [Peptide 1018-A2]
% Biofilm inhibition [1]: 64%
Fold increase in MCP1 cf. untreated cells [2]: 0.6
MCP1 [2]: -65 pg/mL
Fold change in IL1β relative to no peptide LPS stimulated cells [3]: 0.10
IL1β Production [3]: 127 pg/mL
